Ten molecules from article PMC6204718, “GCDB: a glaucomatous chemogenomics database for in silico drug discovery” (Database: The Journal of Biological Databases and Curation, 2018) can be followed below.

One assay deals with T1, human A3AR (Homo sapiens, UniProt P0DMS8).
T1 construct: host or cells: CHO-K1 (CHO-ADORA3)
T1 sequence (P0DMS8 1-318): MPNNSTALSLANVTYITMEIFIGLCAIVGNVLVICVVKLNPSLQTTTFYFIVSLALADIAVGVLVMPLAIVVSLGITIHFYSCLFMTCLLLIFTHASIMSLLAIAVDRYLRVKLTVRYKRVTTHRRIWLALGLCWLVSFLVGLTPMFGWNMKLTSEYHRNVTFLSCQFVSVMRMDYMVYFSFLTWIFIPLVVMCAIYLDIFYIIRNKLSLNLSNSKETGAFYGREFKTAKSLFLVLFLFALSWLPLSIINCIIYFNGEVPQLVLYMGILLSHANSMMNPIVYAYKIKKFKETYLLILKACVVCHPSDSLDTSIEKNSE
In words: A3AR cell-based functional assay (A3AR-mediated cAMP production, CHO-ADORA3 cells). The note with it: for IC50: target A3AR, cAMP level of ADORA3-CHO cells elicited by NECA. The protocol: (§1) Pharmaron (Beijing) was commissioned to perform in vitro inhibition screening of hGR and A3AR.
The four test compounds were evaluated as A3AR antagonists by A3AR-mediated cAMP production in cell-based functional assays. CHO-ADORA3 cells in which the A3AR was transfected in engineered CHO-K1 cells (PerkinElmer) to express the human A3AR were employed. The cells were collected by centrifugation and resuspended with Hank’s Buffered Saline Solution, 5 mM 4-(2-hydroxyethyl)-1-piperazineethanesulfonic acid (HEPES), 0.1% bovine serum albumin (BSA) stabilizer (pH 7.4) and 10 μM Rolipram. 2000 cells per well were added to 384 wells solid white plate. Test compounds were prepared with DMSO in 3-fold serial dilutions of 11 concentrations and dispensed to assay plates. Each compound was tested within the range of 1.69 × 10^-3–100 μM. The serial dilutions of adenosine-5′-N-ethyluronamide (NECA, 10 nl/well) was transferred to 384 wells and incubated at room temperature for 30 min. A LANCE cAMP 384 kit (Perkin Elmer, USA) was used to measure the intracellular cAMP levels. Forskolin (1 μM) was used to stimulate adenylyl cyclase activity and induce cAMP production. NECA and VUF-5574 were used as reference compounds.

Assay [1] addresses T2, human glucocorticoid receptor (hGR) (Homo sapiens, UniProt P04150).
T2 construct: expressed in transfected cells; host or cells: HEK293T
T2 sequence (P04150 524-758 limits assumed): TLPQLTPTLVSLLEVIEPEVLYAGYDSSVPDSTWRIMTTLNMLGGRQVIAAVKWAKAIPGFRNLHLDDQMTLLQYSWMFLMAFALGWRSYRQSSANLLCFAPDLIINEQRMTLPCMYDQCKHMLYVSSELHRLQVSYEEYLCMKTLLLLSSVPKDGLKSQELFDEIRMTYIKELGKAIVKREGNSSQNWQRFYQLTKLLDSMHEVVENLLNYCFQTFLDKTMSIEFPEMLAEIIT
In words: hGR reporter gene assay (GR-GAL4 chimeric receptor, antagonist mode). Format: cell-based.
Text: as §1
The coding sequence of hGR ligand-binding domain was inserted into the pBIND expression vector (Promega, E1581) to express GR-GAL4 binding domain chimeric receptors. The expression vector and reporter vector were co-transfected into HEK293T host cells. The principle of the assay is that once the agonist binds to the corresponding GR-GAL4 chimeric receptor, the reporter gene is activated after binding of the chimeric receptor to the GAL4 binding sites. When the antagonist and agonist are in the system, the antagonist will compete with the agonist for binding to the GR-GAL4 chimeric receptor, inhibiting the reporter gene. Cyproterone was used as a positive control. All six test compounds were prepared in dimethyl sulfoxide (DMSO) at 10 mM and further diluted. Each compound was added to wells at final concentrations of 100 μM, 50 μM, 16.67 μM, 5.56 μM, 1.85 μM, 0.62 μM, 0.21 μM, 0.07 μM, 0.02 μM, 0.008 μM and 0.003 μM.
A general note: In a reporter assay the amount or activity of a reporter protein is the signal.

[2] abbreviates: read-out: IC50 (half-maximal inhibitory concentration).
Where [3] appears, read: target GR, GR-GAL4 reporter gene assay in HEK293T cells, read-out: IC50 (half-maximal inhibitory concentration).

Like-named read-outs stand apart in the source and are kept apart here.

With `NC(=O)c1nnc2cc(-c3ccccc3)nn2c1-c1ccccc1Cl` [A3-2], at human A3AR (setting [2]), the IC50 is over 10 µM. Regarding `CC(=O)OC1CCC2(C)C(=CCC3C2CCC2(C)C(OC(=O)c4ccccc4)CCC32)C1` (centres unmarked) [GR-1], the IC50 in assay [1] was found to be 28.4 µM.

On to `CC(=O)OCC(=O)C1(OC(C)=O)CCC2C3CCC4=CC(=O)C=CC4(C)C3C(=O)CC21C` (centres unmarked) [GR-6], for which the IC50 in assay [1] (setting [3]) stood at 8.6 µM.

`Cc1nnc(SCC(=O)Nc2ccc(S(N)(=O)=O)cc2)c2nn(-c3ccccc3)c(C)c12` [GR-4]: in assay [1] (setting [3]), the IC50 came to 23.5 µM. For `CC(=O)C1(O)CCC2C3CCC4(C)CC(=O)CCC4(C)C3C(=O)CC21C` (centres unmarked) [GR-3], the IC50 in assay [1] (setting [3]) was determined as 27 µM. In the case of `O/N=C/c1cn(-c2ccccc2)nc1-c1ccccc1` [A3-3], the LE value at human A3AR (ligand efficiency based on IC50, 20 heavy atoms) was determined as 0.36 kcal/mol. The IC50 on human A3AR (setting [2]) is 6.15 µM.

For the molecule `O=S(=O)(Nc1cccc(-c2nc3ccccc3s2)c1)c1ccc(F)c(Cl)c1` [GR-5], the IC50 in assay [1] (setting [3]) worked out at 18 µM. In the case of `CC(=O)Nc1ccc(S(=O)(=O)Nc2cc(C(F)(F)F)cc(C(F)(F)F)c2)cc1` [A3-1], the IC50 on human A3AR (setting [2]) is over 10 µM. Molecule `CC1(O)CCC2C3CCC4=CC(=O)CCC4C3CCC21C` (centres unmarked) [A3-4] returned an IC50 against human A3AR (IC50 (half-maximal inhibitory concentration)) of over 10 µM. Take `C#CC1(O)CCC2C3CCc4cc(Oc5ccc([N+](=O)[O-])cc5)ccc4C3CCC21C` (centres unmarked) [GR-2]: the IC50 in assay [1] (setting [3]) stood at 2.92 µM.
